# Measurements published in patent publication US20230339866A1, “Quinazoline compounds and the use thereof in the treatment of cancer” (TROBIO THERAPEUTICS PTY LTD, priority 2020, published 2023).
# Key:
# A549 (NSCLC) = test: Anti-proliferative activity (Cell-Titre luminescence) against A549 non-small cell lung cancer cells; format: cell-based; conditions: Homo sapiens, 72 h exposure, Cell-Titre luminescent reagent
# Description: (§1) The ability of compounds of the invention to inhibit the proliferation of cancer cells representative of non-small cell lung cancer and ovarian cancer (Table 2), pancreatic cancer, colorectal cancer and prostate cancer (Table 3) was assessed. Briefly, a predetermined number of cells as calculated from cell growth assays for each of the cell lines employed were seeded into their respective culture medium (using ATCC culture parameters—http://www.atcc.org) and cultured for 24 h at 37° C. and 5% CO2 in 96-well culture plates. Once attached, each cell line was then exposed to various concentrations of each respective analogue (30, 10, 3, 1, 0.3 and 0.1 μM), cultured for a further 72 h and exposed to Cell-Titre luminescent reagent (100 μL/well) for a further 30 min. Luminescence was captured using an EnVision multilabel reader and the data for each analogue concentration compared against no treatment control. Cell viability was normalised to control (vehicle alone) and dose response curves, and half maximal effective concentration (EC50) values were determined using Graph Pad Prism 6 (nonlinear regression sigmoidal dose-response variable slope).
# A2780 (ovarian) = test: Anti-proliferative activity (Cell-Titre luminescence) against A2780 ovarian cancer cells; format: cell-based; conditions: Homo sapiens, 72 h exposure, Cell-Titre luminescent reagent
# Description: as §1
Compound,"IC50 (A549 (NSCLC); A549, 72 h) [µM]","IC50 (A2780 (ovarian); A2780, 72 h) [µM]",IC50 (A549 (NSCLC); A549) [µM],IC50 (A2780 (ovarian); A2780) [µM]
"COc1cccc(CNc2nc(NCCO)c3ccccc3n2)c1 [Compound 33, 2-((2-((3-methoxybenzyl)amino)quinazolin-4-yl)amino)ethan-1-ol]",21,8.95,,
"OCCNc1nc(-c2ccc[nH]2)nc2ccccc12 [Compound 20, 2-((2-(1H-pyrrol-2-yl)quinazolin-4-yl)amino)ethan-1-ol]",> 30,> 30,,
"COc1cccc(CCNc2nc(NCCN3CCN(C)CC3)c3ccccc3n2)c1 [Compound 53, N^2-(3-methoxyphenethyl)-N^4-(2-(4-methylpiperazin-1-yl)ethyl)quinazoline-2,4-diamine]",> 30,18.2,,
"COc1cccc(CCNc2nc(NCCO)c3ccccc3n2)c1 [Compound 38, 2-((2-((3-methoxyphenethyl)amino)quinazolin-4-yl)amino)ethan-1-ol]",26.8,18.8,,
"OCCNc1nc(-c2ccco2)nc2ccccc12 [Compound 22, 2-((2-(furan-2-yl)quinazolin-4-yl)amino)ethan-1-ol]",> 30,> 30,,
"CN1CCN(CCNc2nc(-n3cccc3)nc3ccccc23)CC1 [Compound 17, N-(2-(4-methylpiperazin-1-yl)ethyl)-2-(1H-pyrrol-1-yl)quinazolin-4-amine]",> 30,22.7,,
"OCCNc1nc(Nc2ccc(C(F)(F)F)cc2)nc2ccccc12 [Compound 28, 2-((2-((4-(trifluoromethyl)phenyl)amino)quinazolin-4-yl)amino)ethan-1-ol]",> 30,> 30,,
"CN1CCN(CCNc2nc(NCCc3ccco3)nc3ccccc23)CC1 [Compound 148, N^2-(2-(furan-2-yl)ethyl)-N^4-(2-(4-methylpiperazin-1-yl)ethyl)quinazoline-2,4-diamine]",> 30,7.77,,
"CN1CCN(CCNc2nc(NCc3ccccc3)nc3ccccc23)CC1 [Compound 45, N^2-benzyl-N^4-(2-(4-methylpiperazin-1-yl)ethyl)quinazoline-2,4-diamine]",18.4,8.55,,
"OCCNc1nc(-c2ccsc2)nc2ccccc12 [Compound 19, 2-((2-(thiophen-3-yl)quinazolin-4-yl)amino)ethan-1-ol]",> 30,> 30,,
"OCCNc1nc(NCc2cccc(C(F)(F)F)c2)nc2ccccc12 [Compound 2, 2-((2-((3-(trifluoromethyl)benzyl)amino)quinazolin-4-yl)amino)ethan-1-ol]",,,11.1,10.7
"OCCNc1nc(-c2ccoc2)nc2ccccc12 [Compound 23, 2-((2-(furan-3-yl)quinazolin-4-yl)amino)ethan-1-ol]",> 30,> 30,,
"CN1CCN(CCNc2nc(-c3ccco3)nc3ccccc23)CC1 [Compound 14, 2-(furan-2-yl)-N-(2-(4-methylpiperazin-1-yl)ethyl)quinazolin-4-amine]",> 30,> 30,,
"OCCCNc1nc(-c2ccc[nH]2)nc2ccccc12 [Compound 109, 3-((2-(1H-pyrrol-2-yl)quinazolin-4-yl)amino)propan-1-ol]",21.1,13,,
"OCCNc1nc(-c2cccs2)nc2ccccc12 [Compound 18, 2-((2-(thiophen-2-yl)quinazolin-4-yl)amino)ethan-1-ol]",> 30,> 30,,
"CN(C)CCNc1nc(Nc2cccc(F)c2)nc2ccccc12 [Compound 63, N^4-(2-(dimethylamino)ethyl)-N^2-(3-fluorophenyl)quinazoline-2,4-diamine]",19.8,5.67,,
"OCCCNc1nc(-n2cccc2)nc2ccccc12 [Compound 111, 3-((2-(1H-pyrrol-1-yl)quinazolin-4-yl)amino)propan-1-ol]",> 30,> 30,,
"COc1ccc(Nc2nc(NCCO)c3ccccc3n2)cc1 [Compound 30, 2-((2-((4-methoxyphenyl)amino)quinazolin-4-yl)amino)ethan-1-ol]",> 30,> 30,,
"COc1ccc(Nc2nc(NCCN(C)C)c3ccccc3n2)cc1 [Compound 61, N^4-(2-(dimethylamino)ethyl)-N^2-(4-methoxyphenyl)quinazoline-2,4-diamine]",11.9,7.09,,

# More lines, in order of falling IC50 (A549 (NSCLC); A549, 72 h), values ahead:
"IC50 (A549 (NSCLC); A549, 72 h) [µM]","IC50 (A2780 (ovarian); A2780, 72 h) [µM]",Compound,IC50 (A549 (NSCLC); A549) [µM],IC50 (A2780 (ovarian); A2780) [µM]
11.7,2.13,"CN(C)CCCNc1nc(Nc2ccc(F)cc2)nc2ccccc12 [Compound 73, N^4-(3-(dimethylamino)propyl)-N^2-(4-fluorophenyl)quinazoline-2,4-diamine]",,
11.6,12.5,"CN(C)CCCNc1nc(-c2ccc[nH]2)nc2ccccc12 [Compound 101, N^1-(2-(1H-pyrrol-2-yl)quinazolin-4-yl)-N^3,N^3-dimethylpropane-1,3-diamine]",,
9.53,5.79,"c1ccc2c(NCCc3c[nH]cn3)nc(-n3cccc3)nc2c1 [Compound 108, N-(2-(1H-imidazol-4-yl)ethyl)-2-(1H-pyrrol-1-yl)quinazolin-4-amine]",,
8.03,4.71,"CN1CCN(CCNc2nc(NCCc3ccc(O)cc3)nc3ccccc23)CC1 [Compound 132, N^2-(4-hydroxyphenethyl)-N^4-(2-(4-methylpiperazin-1-yl)ethyl)quinazoline-2,4-diamine]",,
6.76,5.42,"OCCNc1nc(NCCc2ccc(F)cc2)nc2ccccc12 [Compound 91, 2-((2-((4-fluorophenethyl)amino)quinazolin-4-yl)amino)ethan-1-ol]",,
6.27,4.34,"CN1CCN(CCNc2nc(Nc3ccccc3)nc3ccccc23)CC1 [Compound 40, N^4-(2-(4-methylpiperazin-1-yl)ethyl)-N^2-phenylquinazoline-2,4-diamine]",,
5.3,7.68,"CN1CCN(CCNc2nc(NCCc3ccccc3)nc3ccccc23)CC1 [Compound 50, N^4-(2-(4-methylpiperazin-1-yl)ethyl)-N^2-phenethylquinazoline-2,4-diamine]",,
5.28,1.4,"CN1CCN(CCNc2nc(NCCc3ccccc3C(F)(F)F)nc3ccccc23)CC1 [Compound 120, N^4-(2-(4-methylpiperazin-1-yl)ethyl)-N^2-(2-(trifluoromethyl)phenethyl)quinazoline-2,4-diamine]",,
4.77,1.03,"CN1CCN(CCNc2nc(NCCc3ccc(F)c(F)c3)nc3ccccc23)CC1 [Compound 136, N^2-(3,4-difluorophenethyl)-N^4-(2-(4-methylpiperazin-1-yl)ethyl)quinazoline-2,4-diamine]",,
3.82,3.82,"OCCNc1nc(NCCc2ccc(C(F)(F)F)cc2)nc2ccccc12 [Compound 37, 2-((2-((4-(trifluoromethyl)phenethyl)amino)quinazolin-4-yl)amino)ethan-1-ol]",,
3.6,1.39,"COCCNc1nc(NCCc2cccc(C(F)(F)F)c2)nc2ccccc12 [Compound 116, N^4-(2-methoxyethyl)-N^2-(3-(trifluoromethyl)phenethyl)quinazoline-2,4-diamine]",,
3.51,5.04,OCCNc1nc(Nc2ccccc2O)nc2ccccc12 [Compound 149],,
3.44,1.1,"CN1CCN(CCNc2nc(NCCc3cc(Cl)cc(Cl)c3)nc3ccccc23)CC1 [Compound 139, N^2-(3,5-dichlorophenethyl)-N^4-(2-(4-methylpiperazin-1-yl)ethyl)quinazoline-2,4-diamine]",,
3.28,6.13,"CN1CCN(CCNc2nc(NCc3ccc(C(F)(F)F)cc3)nc3ccccc23)CC1 [Compound 47, N^4-(2-(4-methylpiperazin-1-yl)ethyl)-N^2-(4-(trifluoromethyl)benzyl)quinazoline-2,4-diamine]",,
3.19,0.66,"CN1CCN(CCNc2nc(NCCc3ccc(Cl)c(Cl)c3)nc3ccccc23)CC1 [Compound 135, N^2-(3,4-dichlorophenethyl)-N^4-(2-(4-methylpiperazin-1-yl)ethyl)quinazoline-2,4-diamine]",,
2.84,6.74,"OCCNc1nc(Nc2cccc(C(F)(F)F)c2)nc2ccccc12 [Compound 27, 2-((2-((3-(trifluoromethyl)phenyl)amino)quinazolin-4-yl)amino)ethan-1-ol]",,
2.67,2.32,"OCCNc1nc(NCCc2cccc(C(F)(F)F)c2)nc2ccccc12 [Compound 36, 2-((2-((3-(trifluoromethyl)phenethyl)amino)quinazolin-4-yl)amino)ethan-1-ol]",,
2.54,2.62,"Cc1ccc(CCNc2nc(NCCN3CCN(C)CC3)c3ccccc3n2)cc1 [Compound 127, N^2-(4-methylphenethyl)-N^4-(2-(4-methylpiperazin-1-yl)ethyl)quinazoline-2,4-diamine]",,
2.46,0.759,"NCCCNc1nc(NCCc2cccc(C(F)(F)F)c2)nc2ccccc12 [Compound 119, N^4-(3-aminopropyl)-N^2-(3-(trifluoromethyl)phenethyl)quinazoline-2,4-diamine]",,
